Laboratory results published in patent publication US20040235083A1, “Screening method” (priority 2001, published 2004).

Tests used:
[1] = target: T1, NQO2 (Mus musculus, UniProt Q9JI75); test: Effect of compound on NQO2 activity (reduction of methyl red by GST-NQO2 fusion protein, absorbance at 436 nm); type: biochemical; details: 1 μM compound; 10 nM fusion protein, 30 μM methyl red, 25° C., pH 7.4; read-out: inhibitory action on NQO2 activity
T1 construct: made in house; host or cells: E. coli DH5α carrying pGEX-4T-2 with the insert
T1 sequence (Q9JI75 1-231): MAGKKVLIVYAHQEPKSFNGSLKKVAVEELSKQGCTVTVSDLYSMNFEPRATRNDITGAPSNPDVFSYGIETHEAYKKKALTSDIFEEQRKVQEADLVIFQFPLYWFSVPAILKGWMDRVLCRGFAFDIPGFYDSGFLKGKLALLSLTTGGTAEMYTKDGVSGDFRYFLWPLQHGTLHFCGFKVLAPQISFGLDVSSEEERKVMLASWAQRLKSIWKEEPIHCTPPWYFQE
Protocol: Entire RNA was prepared from a mouse osteoblastic cell line, MC3T3-E1, and cDNA was synthesized by using the oligo-dT primer. PCR was performed by using the cDNA as a template and two synthetic DNAs having the nucleotide sequences of SEQ ID NO: 5 and SEQ ID NO: 6, respectively, as primers to add the sequences recognized-by restriction enzymes. The resulting DNA fragment was cleaved with restriction enzymes BamHI and SalI and inserted into the BamHI-SalI cleavage site of plasmid pGEX-4T-2 (Amersham Pharmacia Biotech). The nucleotide sequence was confirmed, and then E. coli DH5α (GIBCO BRL) carrying the plasmid was cultured in an LB medium. According to the protocol recommended by Amersham Pharmacia Biotech, expression was induced by IPTG, and then purification was performed by using Glutathione-Sepharose (Amersham Pharmacia Biotech). From 2 L of the LB medium, 3.0 mg of the fusion protein was obtained.
Compound A having an osteogenesis-promoting action was examined for effects on the NQO2 activity by using the fusion protein obtained in the above (1). […] The decrease in absorbance at 436 nm was monitored to detect the reduction of methyl red. […]

[2] = tested on: osteoblasts; test: Alkaline phosphatase induction in the test using osteoblasts; type: cell-based; details: concentration of 1 μM
[3] = tested on: osteoblastic cell line MC3T3-E1; test: Alkaline phosphatase activity in MC3T3-E1 after introduction of antisense or sense DNA to NQO2 mRNA; type: cell-based, mouse; details: MC3T3-E1, S-oligo DNA with FuGene 6, four days incubation, corrected for protein
Protocol: The alkaline phosphatase activity is represented by a relative activity (%) by taking a control value (with no DNA) as 100.
The mouse osteoblastic cell line, MC3T3-E1, in a MEMα medium containing 10% fetal calf serum and 100 μg/ml of kanamycin was inoculated on a 48-well plate at 1.4×10^4 cells per well and cultured overnight. To 100 μl of a serum-free αMEM were added 3 μl of FuGene 6 (Roche), 1.5 μg of the S-oligo DNA having the sequence of SEQ ID NO: 7 (antisense sequence to mouse NQO2 mRNA) and 1.5 μg of the S-oligo DNA having the sequence of SEQ ID NO: 8 (sense sequence to the mRNA) and the mixture was allowed to stand at room temperature for 15 minutes. To each well was added 22 μl of the mixture and incubated under 5% CO2 at 37° C. overnight. Thereafter, ascorbic acid was added at a final concentration of 50 μg/ml, and 10 mM of β-glycerophosphate was added. Incubation was performed for four days, and the activity of the alkaline phosphatase was measured according to Notoya et al. (Journal of Bone and Mineral Research 9: 395-400, 1994). The concentration of the protein in each cell homogenate was measured, and the activity values were corrected and shown in FIG. 1 by taking the activity obtained by the same procedure without addition of the DNA as 100%.

`O=C1NC(=O)C(Cc2ccc(NC(=O)C3=CC(=O)C4C(O)=CC=CC4O3)cc2)S1` (stereo not shown) [Compound A] was tested, and the inhibition at 1 µM [1] was 38% and the alkaline phosphatase-inducing action [2] was “alkaline phosphatase-inducing action”.

For “antisense DNA: S-oligo DNA having the sequence of SEQ ID NO: 7 (antisense sequence to mouse NQO2 mRNA) (antisense CTGCCATGTTGGAGGAGATA; DNA, all phosphorothioate, methylation of C not given here)”, the “alkaline phosphatase activity relative to cells without introduction of DNA (100%)” value [3] was “significantly higher”.

For “sense sequence DNA: S-oligo DNA having the sequence of SEQ ID NO: 8 (sense sequence to the mRNA) (sense TATCTCCTCCAACATGGCAG; DNA, all phosphorothioate, methylation of C not given here) [reference compound]”, the “alkaline phosphatase activity relative to cells without introduction of DNA (100%)” value [3] was “no difference was observed”.
